Paper PMC12926254, “Novel pyrazole carboxylate derivatives as lonazolac bioisosteres with selective COX-2 inhibition: design, synthesis and anti-inflammatory activity” (Molecular Diversity, 2025)

What was measured:
TNF-α = TNF-α production in LPS-activated RAW 264.7 macrophages (ELISA); conditions: Mus musculus, RAW264.7, read-out: TNF-α IC50
iNOS = assay: Inducible nitric oxide synthase (iNOS) inhibition in LPS-induced RAW 264.7 cells (ELISA); assay type: cell-based; conditions: Mus musculus, RAW264.7
Excerpt: NO is produced from L-arginine by iNOS and is utilized in a variety of cell signaling processes. An inducible member of the NOS family, iNOS is increased during pro-inflammatory cytokine activity as a host-defense mechanism. A commercially available quantitative ELISA kit (ab253219 Mouse iNOS Simple Step ELISA® Kit) will be used to evaluate the iNOS enzyme activity of the substances in the cell lysate in accordance with the manufacturer’s instructions.

IC50 (TNF-α) [nM]	IC50 (iNOS) [nM]	SMILES
1200 ± 60	531 ± 50	CCOC(=O)COc1ccc(C2=NN(c3ccc(S(C)(=O)=O)cc3)C(c3cc(OC)c(OC)c(OC)c3)C2)cc1 (stereo not drawn) [Compound 15d, Ethyl 2-(4-(1-(4-(methylsulfonyl)phenyl)-5-(3,4,5-trimethoxyphenyl)-4,5-dihydro-1H-pyrazol-3-yl)phenoxy)acetate]
1040 ± 42	610 ± 130	CCOC(=O)COc1ccc(C2=NN(c3ccc(S(C)(=O)=O)cc3)C(c3ccc(Br)cc3)C2)cc1 (stereo not drawn) [Compound 15 h, Ethyl 2-(4-(5-(4-bromophenyl)-1-(4-(methylsulfonyl)phenyl)-4,5-dihydro-1H-pyrazol-3-yl)phenoxy)acetate]
770 ± 25	410 ± 60	CCOC(=O)COc1ccc(C2=NN(c3ccc(S(C)(=O)=O)cc3)C(c3ccc(OC)cc3)C2)cc1 (stereo not drawn) [Compound 15c, Ethyl 2-(4-(5-(4-methoxyphenyl)-1-(4-(methylsulfonyl)phenyl)-4,5-dihydro-1H-pyrazol-3-yl)phenoxy)acetate]
